Source: patent US20240309365A1, “MODULATING TRANSCRIPTIONAL CONDENSATES” (Whitehead Institute for Biomedical Research, priority 2020, published 2024)
Numbered stars: 1 amine (or outer) side, 2 acyl side, 3 side chain; on linkers, the order of the positions; unused ones are H or OH. Bridge positions count the residues as written; N and C are the ends. Square brackets hold non-standard residues; d marks the D form. Peptide text beside a SMILES is read from it. I, II: the chains in the order shown. Actinocin(9to1) = Cc1c2oc3c(C)ccc(C(=O)[*:1])c3nc-2c(C(=O)[*:2])c(N)c1=O; NMeV = CN[C@H](C(=O)O)C(C)C; Sar = CNCC(=O)O

How the values were obtained:
[1] = tested on: Med1-GFP condensates in mESCs; experiment: Condensate size in Med1-GFP mESCs after transcription inhibition; type: cell-based, mouse; conditions: 30 minutes; 100 μM DRB or 1 μM Actinomycin-D; 3D super-resolution microscopy
Experimental: (§1) For small molecule inhibition experiments, cells were treated with 100 μM DRB (Sigma), or 1 μM Actinomycin-D (Sigma) in 2i media (detailed above) for 30 minutes, then imaged. For wash-out experiments, media was replaced with fresh 2i media and cells were allowed to recover for 1 hour, then the cells were imaged.
Cells with endogenously-tagged Med1-GFP (Sabari et al., 2018) were plated on glass-bottom dishes (Mattek) coated with poly-L-ornithine (Sigma) and laminin (ThermoFisher). Mock (DMSO) and treated cells were imaged on a LSM 880 Confocal Microscope with Airyscan to obtain super-resolution z-stacks for at least 8 different fields containing multiple cells. For quantification, a manual threshold was applied equally across all conditions to remove background, and the size of Med1-GFP puncta was quantified in 3D using the 3D object counter plugin (Fiji/ImageJ).

[2] = tested on: Med19 condensates in mESCs; experiment: Condensate lifetime in Med19-Halo mESCs by tcPALM; type: cell-based, mouse
Experimental: as §1
HaloTag was endogenously knocked into 5′-end of Med19 via homology-directed repair (HDR) in mouse embryonic stem cells (R1 mESCs). Three single-guide RNAs (sgRNAs) targeting+/−100 bps from the start codons of Med19 gene were designed using the web-based CRISPR Design tool (http://crispr.mit.edu) and integrated into a Streptococcus pyogenes Cas9 vector (Addgene #62988) for standard CRISPR/Cas9 editing. Single positive colonies were sorted by fluorescence-activated cell sorting (FACS) and validated under the microscope. […]
Photo-activation localization microscopy (PALM) imaging was performed using a Nikon Eclipse Ti microscope with a 100× oil immersion objective (NA 1.40) (Nikon, Tokyo, Japan). […] Med19-Halo cluster lifetimes were calculated as previously described using the qSR software (dark time tolerance=20 frames, min cluster size=50) (Andrews et al., 2018), and a cumulative distribution was generated using Prism software (GraphPad).

MED1-IDR = molecular target: T1, MED1-IDR (Homo sapiens, UniProt Q15648); experiment: In vitro droplet assay with MED1-IDR-GFP; type: biochemical; conditions: alternative polyanions instead of RNA
T1 construct: Amino acids included; 6xHIS; made in house; host or cells: LOBSTR cells (E. coli), pET plasmid, Ni-NTA purification
T1 sequence (Q15648 948-1573): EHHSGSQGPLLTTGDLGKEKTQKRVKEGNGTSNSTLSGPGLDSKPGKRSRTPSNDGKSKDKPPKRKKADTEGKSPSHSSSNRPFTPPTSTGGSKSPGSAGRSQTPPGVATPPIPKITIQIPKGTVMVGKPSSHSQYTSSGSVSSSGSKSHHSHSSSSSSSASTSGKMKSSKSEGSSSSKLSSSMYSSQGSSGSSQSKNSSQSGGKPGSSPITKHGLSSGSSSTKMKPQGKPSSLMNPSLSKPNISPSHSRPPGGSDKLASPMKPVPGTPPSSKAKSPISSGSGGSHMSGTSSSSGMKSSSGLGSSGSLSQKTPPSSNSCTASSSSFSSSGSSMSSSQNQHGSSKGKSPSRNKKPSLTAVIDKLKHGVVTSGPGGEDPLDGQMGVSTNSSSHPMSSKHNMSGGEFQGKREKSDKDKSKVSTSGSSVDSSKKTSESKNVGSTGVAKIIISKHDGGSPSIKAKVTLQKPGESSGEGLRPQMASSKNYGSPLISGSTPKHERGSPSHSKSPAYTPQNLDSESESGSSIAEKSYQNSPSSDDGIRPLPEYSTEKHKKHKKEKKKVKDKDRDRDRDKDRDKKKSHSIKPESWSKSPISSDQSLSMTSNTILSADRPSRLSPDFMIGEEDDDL
Experimental: Charge-balance calculations were performed (FIGS. 2, 9, 10 and 11) employing the following method. Net protein charge per molecule was calculated as Cp=#(R, K)−#(D, E) for the relevant sequence including the GFP tag. RNA charge per molecule was calculated as Cr=−(# […]), assuming an approximate charge of −1 per nucleotide (Lin et al., 2019). Next, the charge balance ratio was computed at a particular RNA and protein concentration as:
The effective concentration of MED1-IDR in the assays was 1000 nM. The results were not quantitatively affected by inclusion/exclusion of the partial charge on Histidine residues, partly due to their low frequency on the protein sequences. For Heparin, a charge of roughly −3 per monomer was employed (Lin et al., 2020) and for single-stranded DNA, a charge of −1 per nt was employed. The fit is quantified by calculating Pearson correlation coefficient (r) was calculated between the median droplet partition value at different concentrations and the relevant charge-balance ratios and reported in FIGS. 2, 9, 10, and 11. A higher correlation implies that experimental data follow a similar qualitative trend as the estimated charge-balance curves. The code for performing these calculations are available at: […]

[3] = tested on: reconstituted mammalian transcription system (Pol II, general transcription factors, Mediator, Gal4); experiment: Reconstituted in vitro transcription assay (droplets and qRT-PCR output); type: biochemical; conditions: 2 mM NTPs, 200 mM NaCl, 500 nM heparin, spermine at concentrations predicted to balance charge; for partitioning of template DNA into droplets: Cy3-labeled template DNA; for droplet area: added to the transcription reaction; for transcription (levels of RNA synthesis): qRT-PCR of template-derived RNA
Experimental: For the size analysis of droplets formed in the reconstituted transcription assays (FIG. 3), brightfield images were subtracted by a median-filtered image (px=21), and droplets were manually segmented and their areas measured using ImageJ.
The reconstituted in vitro transcription by RNA polymerase II was performed as previously described (Flores et al., 1992; LeRoy et al., 2008, 2019; Orphanides et al., 1998) with some modifications. A 1000 bp template DNA (unlabeled or Cy-3 labeled at 3′ end) containing adenovirus major late promoter, five Gal4 binding sites, TATA-box sequence and 561 bp from eGFP sequence was used. First, pre-initiation complex was assembled at RT for 15 min by mixing the following components: 50 nM RNA polymerase II enriched for hypophosphorylated CTD, 50 nM general transcription factors (TFIIA-B-D-E-F-H), and 5.75 nM template DNA, in a buffer containing 10 mM HEPES pH 7.5, 65 mM NaCl, 6.25 mM MgCl2, and 6.25 mM Sodium butyrate. Next, 10 nM Mediator complex and 10 nM GAL4 (Gal4 DNA binding domain fused to activation domain of VP16) were added to the reaction. Last, nucleotide mix containing 0.375 mM ATP, CTP, UTP, GTP (Invitrogen), 0.01 U RNase Inhibitor (Invitrogen), 1.25% PEG-8000 were added together with one of the following: a) various amounts of purified exogenous Pou5f1 RNA (0-500 nM) b) spermine (Sigma, S4264) c) extra NTPs (Invitrogen) d) extra NaCl e) heparin (Sigma, H3393). The reaction was incubated at 30° C. for 2 hr. RNA isolation was performed using RNeasy kit (Qiagen) by including a spike-in RNA control and an RNA carrier. Purified RNAs were treated with ezDNase (Invitrogen) for 30 min at 37° C. to eliminate the template DNA. Reverse transcription was performed using Superscript IV (Invitrogen) and qPCR was performed with SYBR Green Real Time PCR master mix (Invitrogen) to quantify the template derived transcriptional output. The Ct values of the reactions were normalized to the spike-in RNA control. The concentration of template derived transcriptional output was calculated by using a standard curve of qRT-PCR Ct values generated by known amounts of serially diluted GFP RNA.
To visualize the droplets formed in the reconstituted transcription assay, using a micropipette (2-20 μL), 5 μL of the reactions were loaded onto a homemade chamber, which was prepared by attaching coverslips to a glass slide by parallel strips of double-sided tape (Sabari et al., 2018). After the droplets were settled on the glass coverslip, the images were collected by using RPI Spinning Disk confocal microscope with a 100× objective. To account for camera artifacts in the images, brightfield Images of droplets from reconstituted assays were subjected to a white tophat filter with a disk element radius of 21 using the MorphoLib plugin in ImageJ, then a Gaussian filter (sigma=1) was applied.

Mediator complex = tested on: T2, Mediator complex; experiment: In vitro droplet assay with purified Mediator complex; type: biochemical, human; conditions: 6-400 nM RNA added to 200 nM purified Mediator complex
T2 construct: Purification of Human Mediator Complex from HeLa Nuclear Extract; endogenous in cells; host or cells: HeLa nuclear extract, multi-step column purification
Experimental: HeLa nuclear protein extract (4 g) was prepared as described in (Dignam et al., 1983). Nuclear extract was dialyzed against BC100: BC buffer, pH 7.5+100 mM KCl (20 mM Tris-HCl, 20 mM B-Mercaptoethanol, 0.2 mM PMSF, 0.2 mM EDTA, 10% glycerol (v/v) and 100 mM KCl). The extract was fractionated on a phosphocellulose column (P11) with BC buffer containing 0.1, 0.3, 0.5 and 1M KCl. The Mediator complex eluted in the 0.5M KCL (BC500) fraction. This fraction was dialyzed against BC100 and loaded on a DEAE Cellulose column and sequentially fractionated with BC buffer containing 0.1, 0.3 and 0.5M KCl. […] This fraction was then directly loaded onto a DEAE-5 PW column (TSK) and eluted with a linear KCl gradient from 0.1 to 1M KCl in BC buffer. The Mediator complex eluted between 0.4 and 0.6M KCl. The fractions containing Mediator were pooled and dialyzed against BD700: BD buffer, (20 mM Hepes pH 7.5, 20 mM β-Mercaptoethanol, 0.2 mM PMSF, 0.2 mM EDTA, 10% glycerol, and 700 mM (NH4)2SO4). This fraction was then loaded onto a Phenyl-Sepharose Hydrophobic Interaction Chromatography (HIC) column and eluted with a linear reverse gradient from 0.7 to 0.025M (NH4)2SO4 in BD buffer. The Mediator complex eluted between 0.3 and 0.1M (NH4)2SO4. […]

Molecule | partitioning of template DNA into droplets [3] | droplet area [3] | transcription (levels of RNA synthesis) [3] | other results
Cc1c2oc3c(C)ccc(C(=O)N[C@@H]4C(=O)N[C@H](C(C)C)C(=O)N5CCC[C@H]5C(=O)N(C)CC(=O)N(C)[C@@H](C(C)C)C(=O)O[C@@H]4C)c3nc-2c(C(=O)N[C@@H]2C(=O)N[C@H](C(C)C)C(=O)N3CCC[C@H]3C(=O)N(C)CC(=O)N(C)[C@@H](C(C)C)C(=O)O[C@@H]2C)c(N)c1=O [Actinomycin-D] (I: T[dV]P[Sar][NMeV] / II: T[dV]P[Sar][NMeV]; ester I:1-I:C, II:1-II:C; linker I:N-II:N via Actinocin(9to1)) | – | – | – | increase in volume of Med1-GFP condensates [1]: ~2 fold
OC[C@H]1O[C@@H](n2cnc3cc(Cl)c(Cl)cc32)[C@H](O)[C@@H]1O [DRB] | – | – | – | increase in volume of Med1-GFP condensates [1]: ~2 fold; lifetime of Med19 condensates versus mock-treated cells ([2]; 100 μM DRB, 30 minutes, tcPALM): significantly longer lifetimes; lifetime of Med19 condensates after wash with fresh media ([2]; DRB-treated cells washed, 1 hour recovery): recovered to those of the mock-treated condition
heparin | reductions | reductions | reductions | fit of MED1-IDR partitioning to the charge balance model (MED1-IDR): charge balance model also held
NCCCNCCCCNCCCN [spermine] | increased | increased | increased | –
[Cl-].[Na+] [NaCl] | reductions | reductions | reductions | –
Trim28 enhancer RNA: enhancer RNA transcribed from the Trim28 super-enhancer, 594 nt, SEQ ID NO: 46 (nucleic acid, 47) AAATCTTGGAGAGAGTAGGACCTGAGCTGTTTCCTATTTCTACTACTTCCATAGACATCCATGGGTCTCCTTTGGTTCTTACCTTAAACTGCAGTTCTAGAGGCTCTTCTGGGGTTGTAAACTGCCCTTCCCCAACTCAGGAGCTCCCATTCCCTCCCCTTCCTAAACTGGCCCTACTTGTTCGCTCTACTTTATCTTGCCAGGGGTTGTAACAGCCTCCAATCTGTCTTGGATCAGGAAGCAGTTTCCATGGGGTATTTTAAGTGTAAGTTCCCCGGTGAAATGGAAACAAAAAGAATAAGGTATTCTGGGGACAGTGTAGGCCCACTAGGGTGTAGCTTGTTTTGTAAACACAGGACCTGAGTTTTGGACTTTGCCCTGGATTGTACCTGTCCCAGTGGGTTACCTTAGATGACACTAGCTTCATAATGCAAGAGGAGGTTAAGATGCTGGCTAGCGTTACCCACTTTGAAGGTACTGGAAAAGGAAGACCTGATTTACCCAAAAGAGGGAGATCTCTGTGCTTCTACCGCTTTAATTTTTTTTTTCTTTTTTTAAATATTTTTGCAGGACTGGTCACTGTAACTTTTTCCC | – | – | – | RNA concentration at which droplet sizes peaked (Mediator complex): 100 nM; effect on the size of Mediator/RNA droplets (Mediator complex): dose-dependent effect
ssDNA: single-stranded DNA, 117 nt, SEQ ID NO: 51, alternative polyanion (nucleic acid, DNA, backbone and methylation of C not given here) DNA: GGTTCTGCCGCAGGTGGATCCGGTATGTCCACCGCCACGACAGTCGCCCCCGCGGGGATCCCGGCGACCCCGGGCCCTGTGAACCCACCCCCCCCGGAGGTCTCCAACCCCAGCAAG | – | – | – | fit of MED1-IDR partitioning to the charge balance model (MED1-IDR): charge balance model also held
